# From patent US11083717B2, “Compositions and methods for drug sensitization of parasites” (The Texas A&M University System, priority 2015, dated 2021)
# Read-outs that look alike come from different tables or passages of the source.
# Columns and labels:
# [1] = system: S. cerevisiae; assay: in vitro; details: Saccharomyces cerevisiae
# Text: (§1) These tests included an IL-12 mouse model test to determine compound efficacy, verification of MIC50 for CP, cytotoxicity test for fibroblasts and yeast to determine potential toxic effects, a Human ether-a-go-go-related gene (hERG) test to determine potential cardiotoxicity, an AMES test tp determine mutagenic potential, a Safety Screen 44 test to determine common negative off-target drug interastion (Eurofins Cerep, SA, France), a cytochrome P450 (CYP) test to determine potential liver toxicity, a maximum tolerated dose, test, a Pharmacokinetics (PK) test to determine fate of the substance administered to a living organism tests for plasma stability in human and mouse, to measure the degradation of compound in plasma MClint and HClint test to determine in vitro intrinsic clearance for Mouse and Human, and kinetic solubility and plasma protein binding tests in mouse and human.
# [2] = system: human fibroblast; assay: in vitro
# Text: as §1
Compound,"concentrations at which not toxic, S. cerevisiae cytotoxicity testing [1]","concentrations at which not toxic, human fibroblast cytotoxicity testing [2]","concentrations at which not toxic, human fibroblast cytotoxicity testing ([2]; human)"
"CC(C)NC(=O)Cc1ccc(Oc2nc3ccc(F)cc3s2)cc1O [NZ405, 2-{4-[(6-fluoro-1,3-benzothiazol-2-yl)oxy]-2-hydroxyphenyl}-N-(propan-2-yl)acetamide]",≥ 100 µM,≥ 100 µM,–
"CCOC(=O)[C@@H](C)Oc1ccc(Oc2nc3ccc(F)cc3s2)cc1 [NZ-251, ethyl (2R)-2-{4-[(6-fluoro-1,3-benzothiazol-2-yl)oxy]phenoxy}propanoate]",≥ 100 µM,–,≥ 100 µM
"O=C(O)Cc1ccc(Oc2nc3ccc(Cl)cc3s2)cc1 [NZ-287, 2-{4-[(6-chloro-1,3-benzothiazol-2-yl)oxy]phenyl}acetic acid]",≥ 100 µM,–,≥ 100 µM
"CON(C)C(=O)COc1ccc(Oc2cnc3cc(Cl)ccc3n2)cc1 [NZ-290, 2-{4-[(6-chloroquinoxalin-2-yl)oxy]phenoxy}-N-methoxy-N-methylacetamide]",≥ 100 µM,≥ 100 µM,–
"CONC(=O)Cc1ccc(Oc2nc3ccc(Cl)cc3s2)cc1 [NZ-293, 2-{4-[(6-chloro-1,3-benzothiazol-2-yl)oxy]phenyl}-N-methoxyacetamide]",≥ 100 µM,–,≥ 100 µM
"COC(=O)Cc1ccc(Oc2nc3ccc(F)cc3s2)cc1 [NZ-294, methyl 2-{4-[(6-fluoro-1,3-benzothiazol-2-yl)oxy]phenyl}acetate]",≥ 100 µM,–,≥ 100 µM
"O=C(O)Cc1ccc(Oc2cnc3cc(Cl)ccc3n2)cc1 [NZ-298, 2-{4-[(6-chloroquinoxalin-2-yl)oxy]phenyl}acetic acid]",≥ 100 µM,–,≥ 100 µM
"O=C(O)Cc1ccc(Oc2nc3ccc(F)cc3s2)cc1 [NZ-299, 2-{4-[(6-fluoro-1,3-benzothiazol-2-yl)oxy]phenyl}acetic acid]",≥ 100 µM,≥ 100 µM,–
"CONC(=O)Cc1ccc(Oc2nc3ccc(F)cc3s2)cc1 [NZ-300, 2-{4-[(6-fluoro-1,3-benzothiazol-2-yl)oxy]phenyl}-N-methoxyacetamide]",≥ 100 µM,≥ 100 µM,–
"CONC(=O)Cc1ccc(Oc2cnc3cc(Cl)ccc3n2)cc1 [NZ-301, 2-{4-[(6-chloroquinoxalin-2-yl)oxy]phenyl}-N-methoxyacetamide]",≥ 100 µM,≥ 100 µM,–
"COC(=O)COc1ccc(Oc2nc3ccc(F)cc3s2)cc1 [NZ-303, methyl 2-{4-[(6-fluoro-1,3-benzothiazol-2-yl)oxy]phenoxy}acetate]",–,–,≥ 100 µM
"O=C(O)COc1ccc(Oc2nc3ccc(F)cc3s2)cc1 [NZ-304, 2-{4-[(6-fluoro-1,3-benzothiazol-2-yl)oxy]phenoxy}acetic acid]",≥ 100 µM,–,≥ 100 µM
"CONC(=O)COc1ccc(Oc2nc3ccc(F)cc3s2)cc1 [NZ-305, 2-{4-[(6-fluoro-1,3-benzothiazol-2-yl)oxy]phenoxy}-N-methoxyacetamide]",≥ 100 µM,–,≥ 100 µM
"CCNC(=O)COc1ccc(Oc2cnc3cc(Cl)ccc3n2)cc1 [NZ-306, 2-{4-[(6-chloroquinoxalin-2-yl)oxy]phenoxy}-N-ethylacetamide]",≥ 100 µM,≥ 100 µM,–
"CC(C)NC(=O)COc1ccc(Oc2cnc3cc(Cl)ccc3n2)cc1 [NZ-307, 2-{4-[(6-chloroquinoxalin-2-yl)oxy]phenoxy}-N-(propan-2-yl)acetamide]",≥ 100 µM,≥ 100 µM,–
"COC(=O)C(C)c1ccc(Oc2cnc3cc(Cl)ccc3n2)cc1 (stereo not drawn) [NZ-308, methyl 2-{4-[(6-chloroquinoxalin-2-yl)oxy]phenyl}propanoate]",≥ 100 µM,–,≥ 100 µM
"CC(C(=O)O)c1ccc(Oc2cnc3cc(Cl)ccc3n2)cc1 (stereo not drawn) [NZ-309, 2-{4-[(6-chloroquinoxalin-2-yl)oxy]phenyl}propanoic acid]",≥ 100 µM,–,≥ 100 µM
"CC(C(=O)O)c1ccc(Oc2nc3ccc(Cl)cc3s2)cc1 (stereo not drawn) [NZ-312, 2-{4-[(6-chloro-1,3-benzothiazol-2-yl)oxy]phenyl}propanoic acid]",≥ 100 µM,–,≥ 100 µM
"CONC(=O)C(O)c1ccc(Oc2nc3ccc(Cl)cc3s2)cc1 (stereo not drawn) [NZ-338, 2-{4-[(6-chloro-1,3-benzothiazol-2-yl)oxy]phenyl}-2-hydroxy-N-methoxyacetamide]",–,–,≥ 100 µM

Compound,"concentrations at which not toxic, S. cerevisiae cytotoxicity testing [1]","concentrations at which not toxic, human fibroblast cytotoxicity testing [2]","concentrations at which not toxic, human fibroblast cytotoxicity testing ([2]; human)"
"CN(C)C(=O)Nc1ccc(Oc2cnc3cc(Cl)ccc3n2)cc1 [NZ-343, 1-{4-[(6-chloroquinoxalin-2-yl)oxy]phenyl}-3,3-dimethylurea]",–,–,≥ 100 µM
"CC(C)NC(=O)Nc1ccc(Oc2cnc3cc(F)ccc3n2)cc1 [NZ-345, 1-{4-[(6-fluoroquinoxalin-2-yl)oxy]phenyl}-3-(propan-2-yl)urea]",–,≥ 100 µM,–
"CC(C)NC(=O)Nc1ccc(Oc2ccc3cc(Cl)ccc3n2)cc1 [NZ-346, 1-{4-[(6-chloroquinolin-2-yl)oxy]phenyl}-3-(propan-2-yl)urea]",–,≥ 100 µM,–
"NCc1ccc(Oc2nc3ccc(Cl)cc3s2)cc1 [NZ-348, {4-[(6-chloro-1,3-benzothiazol-2-yl)oxy]phenyl}methanamine]",25 to 50 µM,–,–
"CN(C)C(=O)NCc1ccc(Oc2nc3ccc(Cl)cc3s2)cc1 [NZ-349, 1-({4-[(6-chloro-1,3-benzothiazol-2-yl)oxy]phenyl}methyl)-3,3-dimethylurea]",≥ 100 µM,–,–
"CNC(=O)NCc1ccc(Oc2nc3ccc(Cl)cc3s2)cc1 [NZ-350, 1-({4-[(6-chloro-1,3-benzothiazol-2-yl)oxy]phenyl}methyl)-3-methylurea]",≥ 100 µM,–,–
"CC(C)(C)OC(=O)Nc1ccc(Oc2nc3ccc(Cl)cc3s2)cc1 [NZ-351, tert-butyl N-{4-[(6-chloro-1,3-benzothiazol-2-yl)oxy]phenyl}carbamate]",≥ 100 µM,–,–
"Nc1ccc(Oc2nc3ccc(Cl)cc3s2)cc1 [NZ-352, 4-[(6-chloro-1,3-benzothiazol-2-yl)oxy]aniline]",25 to 50 µM,–,–
"CNC(=O)Nc1ccc(Oc2nc3ccc(Cl)cc3s2)cc1 [NZ-353, 1-{4-[(6-chloro-1,3-benzothiazol-2-yl)oxy]phenyl}-3-methylurea]",≥ 100 µM,–,–
"CN(C)C(=O)Nc1ccc(Oc2nc3ccc(Cl)cc3s2)cc1 [NZ-354, 1-{4-[(6-chloro-1,3-benzothiazol-2-yl)oxy]phenyl}-3,3-dimethylurea]",50 to 100 µM,–,–
"COC(=O)C(OC)c1ccc(Oc2nc3ccc(Cl)cc3s2)cc1 (stereo not drawn) [NZ-355, methyl 2-{4-[(6-chloro-1,3-benzothiazol-2-yl)oxy]phenyl}-2-methoxyacetate]",≥ 100 µM,–,–
COC(C(=O)O)c1ccc(Oc2nc3ccc(Cl)cc3s2)cc1 (stereo not drawn) [NZ-356],≥ 100 µM,–,–
"CONC(=O)C(OC)c1ccc(Oc2nc3ccc(Cl)cc3s2)cc1 (stereo not drawn) [NZ-357, 2-{4-[(6-chloro-1,3-benzothiazol-2-yl)oxy]phenyl}-N,2-dimethoxyacetamide]",≥ 100 µM,–,–
"Cc1ccc2nc(Oc3ccc(NC(=O)NC(C)C)cc3)sc2c1 [NZ-358, 1-{4-[(6-methyl-1,3-benzothiazol-2-yl)oxy]phenyl}-3-(propan-2-yl)urea]",≥ 100 µM,–,–
"CC(C)NC(=O)Nc1ccc(Oc2nc3ccc(Br)cc3s2)cc1 [NZ-359, 1-{4-[(6-bromo-1,3-benzothiazol-2-yl)oxy]phenyl}-3-(propan-2-yl)urea]",≥ 100 µM,–,–
"CC(C)NC(=O)Nc1ccc(Oc2nc3ccccc3s2)cc1 [NZ-360, 1-{4-(1,3-benzothiazol-2-yloxy)phenyl]-3-(propan-2-yl)urea]",≥ 100 µM,–,–
"C[C@@H](Oc1ccc(Oc2nc3ccc(Cl)cc3o2)cc1)C(=O)O [fenoxaprop-p, (R)-2-[4-(6-chlorobenzoxazol-2-yloxy)phenoxy]propionic acid, reference compound]",–,≥ 100 µM,–
"CCOC(=O)[C@@H](C)Oc1ccc(Oc2nc3ccc(Cl)cc3o2)cc1 [fenoxaprop-p-ethyl, ethyl (2R)-2-{4-[(6-chloro-1,3-benzoxazol-2-yl)oxy]phenoxy}propanoate, reference compound]",–,–,≥ 100 µM
